Assay results: US11479552B2, “Substituted piperidine compounds and their use” (Eisai R&D Management Co., Ltd., priority 2020, dated 2022)

How the values were obtained:
[1] = test system: C57BL/6 line wild type (WT) male mice; test: Test Example 3: Wake-promoting effect by oral administration to wild type mice (EEG/EMG); type: in vivo
Experimental: The experimental animals used were C57BL/6 line wild type (WT) male mice. Electroencephalogram and electromyogram measuring electrodes were surgically embedded into 13-week-old mice under isoflurane anesthesia. The solvent (0 mg/kg) or a solution of the compound of Example 1 dissolved in the solvent (1, 3 or 10 mg/kg) was orally administered 30 to 15 minutes before lighting was turned off. The solvent used was a 0.1 moL/L hydrochloric acid solution containing 5% (v/v) DMSO and 5% (v/v) Kolliphor™ EL. The electroencephalogram and electromyogram were recorded for about 24 hours, from 1 hour before lighting was turned off. The mice were repeatedly used, with a washout period of 2 days or longer. The electroencephalogram and electromyogram data obtained for each mouse were used to assess the sleep stage every epoch (10 seconds), using sleep analysis software (SleepSign: Kissei Comtec Co., Ltd.). […] Using 16 mice in each administered group, the sleep onset latency in a solvent-administered group (control group) and an Example 1 compound-administered group were compared by a Dunnet-type multiple comparison test following survival time analysis in consideration of the number of experiments and use of the same individuals, with a significance level of 5% at both ends for each.

Male C57BL/6NCrl mice = test: Test Example 2: Increase in spontaneous movement; type: in vivo; conditions: orally administered 10 mg/kg, measured 2 hours after administration, control group as 100%
Experimental: Similar to increase in body temperature or increase in cardiovascular parameters such as blood pressure, increased movement in mice is one of indicator for wakefulness. In this test example, the alertness effect was evaluated by measuring spontaneous movement of the mice. Male C57BL/6NCrl mice (18-19 weeks old, Charles River Laboratories, Japan Inc., 4 mice in each group) were used for the experiment. Spontaneous movement was measured by using a movement measuring device (VersaMax Oven Field, AccuScan Instruments, Inc.), irradiating infrared rays from the side sections of the measuring cage, and quantifying the number of times that the mice passed through the irradiation. After placing the mice in the measuring cage and conditioning for 3 hours, the compound was orally administered (10 mg/kg). Spontaneous movement was measured 2 hours after administration. The test compound-administered group was administered a solution of the test compound dissolved in 0.1 moL/L hydrochloric acid containing 5% (v/v) DMSO and 5% (v/v) Kolliphor™ EL. For the control group, solvent alone without the test compound was administered to the mice.
Spontaneous movement was represented as a percentage for the test compound-administered group, with spontaneous movement in the control group as 100%.

[2] = test system: orexin/ataxin-3 Tg/+ mice; test: Test Example 4: Wake-promoting effect and cataplexy-free state elongation in orexin-deficient mice (EEG/EMG); type: in vivo; conditions: oral; for DREM latency: cut-off 4 hours
Experimental: The experimental animals used were orexin/ataxin-3 Tg/+ mice (hereunder referred to as “Tg mice”, Ham et al., Neuron, 30,345-54,2001) with a C57BL/6 genetic background. Electroencephalogram and electromyogram measuring electrodes were surgically embedded into 12-week-old mice (±2 weeks) under isoflurane anesthesia. The solvent (0 mg/kg) or a solution of a sample (compound of Example 1 dissolved in the solvent: 0.3, 1 or 3 mg/kg) was orally administered 30 to 15 minutes before lighting was turned off. The solvent used was a 0.1 moL/L hydrochloric acid solution containing 5% (v/v) DMSO and 5% (v/v) Kolliphor™ EL. The electroencephalogram and electromyogram were recorded for about 24 hours, from 1 hour before lighting was turned off. The mice were repeatedly used, with a washout period of 2 days or longer. The electroencephalogram and electromyogram data obtained for each mouse were used to assess the sleep stage every epoch (10 seconds), using sleep analysis software (SleepSign: Kissei Comtec Co., Ltd.), up to a maximum of 4 hours (cut-off value). For the purpose of this experiment, cataplexy-like symptoms were defined as REM sleep appearing immediately after wakefulness (direct transition from wake to REM sleep (DREM)) for a contiguous period of 4 epochs or longer. DREM in mice is an analog of cataplexy (Exp Neurol. 2009; 217:46-54). The time until initial sleep appeared after lighting out for each mouse (sleep for contiguous 8 epochs or longer, excluding DREM)(sleep onset latency) and the time until initial DREM appeared (DREM latency) were measured. The numbers of mice were 14 in the vehicle group and Example 1 compound-administered groups. The sleep onset latency and DREM latency in a vehicle control group and a compound-administered group were compared by a Dunnet-type multiple comparison test following survival time analysis in consideration of the number of experiments and use of the same individuals, with a significance level of 5% at both ends for each.

hOX1R = hOX1R (Homo sapiens (Human), UniProt O43613); test: Test Example 1-2: Evaluation of activating activity for OX1R (calcium flux, HEK293 with forced expression); type: cell-based; conditions: HEK293 cells expressing hOX1R; intracellular calcium; 30 nM OX-A as 100%; up to 1×10^−5 M
Sequence of hOX1R (O43613 whole entry): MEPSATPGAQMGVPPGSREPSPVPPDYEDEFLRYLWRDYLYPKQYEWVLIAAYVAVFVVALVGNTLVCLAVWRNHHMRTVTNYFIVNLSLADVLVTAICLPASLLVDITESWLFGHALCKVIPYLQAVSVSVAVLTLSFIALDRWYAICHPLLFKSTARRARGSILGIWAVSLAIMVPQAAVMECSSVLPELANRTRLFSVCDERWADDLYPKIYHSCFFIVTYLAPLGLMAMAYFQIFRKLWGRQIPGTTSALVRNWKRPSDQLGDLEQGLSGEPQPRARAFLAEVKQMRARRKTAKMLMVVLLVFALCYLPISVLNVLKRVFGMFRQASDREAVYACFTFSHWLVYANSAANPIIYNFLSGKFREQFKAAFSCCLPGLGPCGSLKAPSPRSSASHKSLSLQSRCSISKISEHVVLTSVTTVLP
Experimental: (§1) Human Embryonic Kidney cells 293 (HEK293) cells with forced expression of hOX1R or hOX2R were seeded in a 384-well microplate (Greiner) at 10,000 per well and cultured for 1 day in high-glucose-DMEM (FujiFilm Corp.—Wako Pure Chemical Industries, Ltd.) containing added 10% FBS (Thermo Scientific) and 1% Penicillin-Streptomycin (FujiFilm Corp.—Wako Pure Chemical Industries, Ltd.). After removing the medium, 30 μL of assay buffer (20 mM HEPES (Sigma-Aldrich Japan, KK.), Hank's balanced salt solution (Gibco), 0.1% BSA (Sigma-Aldrich Japan, KK.), 0.1% Pluronic F-127 (Invitrogen)) containing Calcium 4 dye (Molecular Device Corporation) and 2.5 mM probenecid (Sigma-Aldrich Japan, KK.) were added, and the mixture was incubated for 60 minutes. A 30 μL portion of assay buffer containing the test compound was added and reaction was initiated. Change in intracellular calcium ion concentration by the reaction was measured based on the fluorescence intensity ratio in terms of the fluorescence value with […], using FDSS7000 (Hamamatsu Photonics, K.K.). The test compound was dissolved in DMSO to 10 mM, and diluted with assay buffer to a final concentration of from 3×10^−11 M to 1×10^−5 M (DMSO final concentration of 0.1%). The EC50 value was determined from the fluorescence value with addition of the test compound at different concentrations, with the fluorescence value of the well with compound-free buffer added as 0%, and the fluorescence value of the well with 30 nM OX-A (Peptide Research Lab) as 100%.

human OX2R (hOX2R) = human OX2R (hOX2R) (Homo sapiens (Human), UniProt O43614); test: Test Example 1-1: Evaluation of activity for OX2R (calcium flux, HEK293 with forced expression); type: cell-based; conditions: HEK293 cells expressing hOX2R; intracellular calcium; 10 nM OX-A as 100%; up to 1×10^−7 M
Sequence of human OX2R (hOX2R) (O43614 whole entry): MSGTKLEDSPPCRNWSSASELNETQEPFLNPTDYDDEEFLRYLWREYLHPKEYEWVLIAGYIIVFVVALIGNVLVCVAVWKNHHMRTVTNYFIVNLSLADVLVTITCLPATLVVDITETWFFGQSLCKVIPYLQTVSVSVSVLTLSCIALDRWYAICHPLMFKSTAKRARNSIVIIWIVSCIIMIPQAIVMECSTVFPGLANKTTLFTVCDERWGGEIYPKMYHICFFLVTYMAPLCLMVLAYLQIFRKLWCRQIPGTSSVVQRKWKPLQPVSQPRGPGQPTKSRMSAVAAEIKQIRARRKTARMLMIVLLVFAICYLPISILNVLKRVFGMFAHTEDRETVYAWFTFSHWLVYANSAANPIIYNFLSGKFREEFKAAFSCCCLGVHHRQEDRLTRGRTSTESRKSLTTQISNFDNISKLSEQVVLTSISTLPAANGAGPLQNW
Experimental: HEK293 (human embryonic kidney 293) cells with forced expression of human OX1R (hOX1R) or human OX2R (hOX2R) were seeded in a 384-well microplate (Greiner) at 10,000 per well and cultured for 1 day in high-glucose-DMEM (FujiFilm Corp.—Wako Pure Chemical Industries, Ltd.) containing added 10% FBS (Tenno Scientific) and 1% Penicillin-Streptomycin (FujiFilm Corp.—Wako Pure Chemical Industries, Ltd.). After removing the medium, 40 μL of assay buffer (20 mM HEPES (Sigma-Aldrich Japan, KK.), Hanks' balanced salt solution (Gibco), 0.1% BSA (Sigma-Aldrich Japan, KK.), 0.1% Pluronic F-127 (Invitrogen)) containing Calcium 4 dye (Molecular Device Corporation) and 2.5 mM probenecid (Sigma-Aldrich Japan, KK.) were added, and the plate was incubated for 60 minutes. After further adding 20 μL of assay buffer, 20 μL of assay buffer containing the test compound was added and reaction was initiated. Change in intracellular calcium ion concentration during the reaction was measured based on the fluorescence intensity ratio in terms of the fluorescence value with wavelength excitation at 480 nm and detection at 540 nm, using FDSS7000 (Hamamatsu Photonics, K.K.). The test compound was dissolved in DMSO to 10 mM, and diluted with assay buffer to a final concentration of from 3×10^−11 M to 1×10^−7 M (DMSO final concentration of 0.1%). […]

hOX2R = hOX2R (Homo sapiens (Human), UniProt O43614); test: Test Example 1-2: Evaluation of activating activity for OX2R (calcium flux, HEK293 with forced expression); type: cell-based; conditions: HEK293 cells expressing hOX2R; intracellular calcium; 30 nM OX-A as 100%; up to 1×10^−5 M
Sequence of hOX2R (O43614 whole entry): as above
Experimental: as §1

Compound `CO[C@@H]1CN(c2ncc(F)cn2)CC[C@@H]1[C@@H]1C[C@H]2CC[C@@H](C1)N2[C@@H](C(N)=O)C1CC1` [Example 1, (R)-2-cyclopropyl-2-((1R,3S,5S)-3-((3S,4R)-1-(5-fluoropyrimidin-2-yl)-3-methoxypiperidin-4-yl)-8-azabicyclo[3.2.1]octan-8-yl)acetamide] has a sleep onset latency ([1]; 1 mg/kg) of 0.28 h, a sleep onset latency ([1]; 3 mg/kg) of 0.44 h and a sleep onset latency ([1]; 10 mg/kg) of 2.07 h. The “Spontaneous movement (% of Control)” value (Male C57BL/6NCrl mice) was 865 % of Control, the sleep onset latency ([2]; 0.3 mg/kg) was 0.31 h and the DREM latency ([2]; 0.3 mg/kg) was 1.50 h. The sleep onset latency ([2]; 1 mg/kg) was 0.64 h, the DREM latency ([2]; 1 mg/kg) was 2.26 h and the sleep onset latency ([2]; 3 mg/kg) was 2.42 h. The DREM latency ([2]; 3 mg/kg) was 4.00 h, the EC50 (hOX1R) was 4700 nM and the EC50 (human OX2R (hOX2R)) was 0.99 nM. The EC50 (hOX2R) was 2.3 nM.
In the case of `C[C@H]1C[C@@H]([C@@H]2C[C@H]3CC[C@@H](C2)N3[C@@H](C(N)=O)C2CC2)CCN1c1ncc(F)cn1` [Example 4, (R)-2-cyclopropyl-2-((1R,3S,5S)-3-((2S, 4S)-1-(5-fluoropyrimidin-2-yl)-2-methylpiperidin-4-yl)-8-azabicyclo[3.2.1]octan-8-yl)acetamide], the EC50 (hOX1R) is reported as 3900 nM and the EC50 (hOX2R) is reported as 4.4 nM.
Compound `CCO[C@@H]1CN(c2ncc(Cl)cn2)CC[C@@H]1[C@@H]1C[C@H]2CC[C@@H](C1)N2[C@@H](C(N)=O)C1CC1` [Example 3, (R)-2-((1R,3S,5S)-3-((3S,4R)-1-(5-chloropyrimidin-2-yl)-3-ethoxypiperidin-4-yl)-8-azabicyclo[3.2.1]octan-8-yl)-2-cyclopropyl acetamide] has an EC50 (hOX1R) of 1400 nM and an EC50 (hOX2R) of 4.3 nM.
`CO[C@@H]1CN(c2ncc(F)cn2)CC[C@@H]1[C@@H]1C[C@H]2CC[C@@H](C1)N2[C@@H](C(N)=O)C(C)C` [Example 2, (R)-2-((1R,3S,5S)-3-((3S,4R)-1-(5-fluoropyrimidin-2-yl)-3-methoxypiperidin-4-yl)-8-azabicyclo[3.2.1]octan-8-yl)-3-methylbutaneamide] was tested, and the “Spontaneous movement (% of Control)” value (Male C57BL/6NCrl mice) was 253 % of Control.
